# Results reported in PubChem BioAssay AID1259407 (Chemical Carcinogenesis Research Information System (CCRIS), 2018).
# Activity calls are given as the source filed them. The rule behind the calls is not given here.
# System: CCRIS mutagenicity, Ames/micronucleus/aberration tests
# Assay: CCRIS mutagenicity studies
# [1] = Test System: AMES SALMONELLA TYPHIMURIUM, Strain/Indicator: TA97, Metabolic Activation: NONE, Method: STANDARD PLATE
# [2] = Test System: AMES SALMONELLA TYPHIMURIUM, Strain/Indicator: TA98, Metabolic Activation: NONE, Method: STANDARD PLATE
# [3] = Test System: AMES SALMONELLA TYPHIMURIUM, Strain/Indicator: TA100, Metabolic Activation: NONE, Method: STANDARD PLATE
# [4] = Test System: AMES SALMONELLA TYPHIMURIUM, Strain/Indicator: TA1535, Metabolic Activation: NONE, Method: STANDARD PLATE
# [5] = Test System: AMES SALMONELLA TYPHIMURIUM, Strain/Indicator: TA1537, Metabolic Activation: NONE, Method: STANDARD PLATE
# [6] = Test System: AMES SALMONELLA TYPHIMURIUM, Strain/Indicator: TA1538, Metabolic Activation: NONE, Method: STANDARD PLATE
# [7] = Test System: AMES SALMONELLA TYPHIMURIUM, Strain/Indicator: TA102, Metabolic Activation: NONE, Method: STANDARD PLATE
# [8] = Test System: AMES SALMONELLA TYPHIMURIUM, Strain/Indicator: TA98, Metabolic Activation: RAT, LIVER, S-9, AROCLOR 1254, Method: STANDARD PLATE
# [9] = Test System: AMES SALMONELLA TYPHIMURIUM, Strain/Indicator: TA100, Metabolic Activation: RAT, LIVER, S-9, AROCLOR 1254, Method: STANDARD PLATE
# [10] = Test System: AMES SALMONELLA TYPHIMURIUM, Strain/Indicator: TA102, Metabolic Activation: RAT, LIVER, S-9, AROCLOR 1254, Method: STANDARD PLATE
smiles,measurement,setting,value
ClCC(CCl)(CCl)CCl,mutagenic call,[1],inactive; negative
same,mutagenic call,[2],inactive; negative
same,mutagenic call,"Test System: AMES SALMONELLA TYPHIMURIUM, Strain/Indicator: TA98, Metabolic Activation: RAT, LIVER, S-9, AROCLOR, Method: STANDARD PLATE",inactive; negative
same,mutagenic call,[3],inactive; negative
same,mutagenic call,"Test System: AMES SALMONELLA TYPHIMURIUM, Strain/Indicator: TA100, Metabolic Activation: RAT, LIVER, S-9, AROCLOR, Method: STANDARD PLATE",inactive; negative
same,mutagenic call,[4],inactive; negative
same,mutagenic call,[5],inactive; negative
same,mutagenic call,[6],inactive; negative
same,mutagenic call,"Test System: AMES SALMONELLA TYPHIMURIUM, Strain/Indicator: TA2637, Metabolic Activation: NONE, Method: STANDARD PLATE",inactive; negative
OCc1ccnc2ccccc12,mutagenic call,"Test System: AMES SALMONELLA TYPHIMURIUM, Strain/Indicator: TA100, Metabolic Activation: RAT, LIVER, S-9, Method: PREINCUBATION",inactive; negative
N=c1ccc2c(-c3ccccc3C(=O)O)c3ccc(N)cc3oc-2c1,mutagenic call,[6],inactive; negative
same,mutagenic call,"Test System: AMES SALMONELLA TYPHIMURIUM, Strain/Indicator: TA1538, Metabolic Activation: RAT, LIVER, S-9, AROCLOR 1254, Method: STANDARD PLATE",inactive; negative
COc1c(C)c2c(c(O)c1C/C=C(\C)CCC(=O)O)C(=O)OC2,mutagenic call,"Test System: AMES SALMONELLA TYPHIMURIUM, Strain/Indicator: TA98, Metabolic Activation: RAT, LIVER, MICROSOMES, PHENOBARBITAL, Method: STANDARD PLATE",inactive; negative
same,mutagenic call,"Test System: AMES SALMONELLA TYPHIMURIUM, Strain/Indicator: TA100, Metabolic Activation: RAT, LIVER, MICROSOMES, PHENOBARBITAL, Method: STANDARD PLATE",inactive; negative
O=[N+]([O-])c1c(O)ccc2ccccc12,mutagenic call,"Test System: AMES SALMONELLA TYPHIMURIUM, Strain/Indicator: TA98, Metabolic Activation: NONE, Method: PREINCUBATION",active; positive
CN1CCN(c2ccc3nc(CCCc4ccc5nc(-c6ccc(N(CCCl)CCCl)cc6)[nH]c5c4)[nH]c3c2)CC1,mutagenic call,[2],inactive; negative
same,mutagenic call,[3],inactive; negative
same,mutagenic call,[7],active; positive
COC1=CC(=O)C=CC1=Nc1c2ccccc2nc2ccccc12,mutagenic call,[5],inactive; negative
O=C1CN=C(c2ccccc2)c2cc([N+](=O)[O-])ccc2N1,mutagenic call,[2],inactive; negative
same,mutagenic call,[8],inactive; negative
same,mutagenic call,[3],inactive; negative
same,mutagenic call,[9],inactive; negative
same,mutagenic call,[7],inactive; negative
same,mutagenic call,[10],inactive; negative
same,mutagenic call,[4],inactive; negative
same,mutagenic call,"Test System: AMES SALMONELLA TYPHIMURIUM, Strain/Indicator: TA1535, Metabolic Activation: RAT, LIVER, S-9, AROCLOR 1254, Method: STANDARD PLATE",inactive; negative
same,mutagenic call,[5],inactive; negative
same,mutagenic call,"Test System: AMES SALMONELLA TYPHIMURIUM, Strain/Indicator: TA1537, Metabolic Activation: RAT, LIVER, S-9, AROCLOR 1254, Method: STANDARD PLATE",inactive; negative
same,mutagenic call,"Test System: E. COLI, Strain/Indicator: WP2 UVRA, Metabolic Activation: NONE, Method: STANDARD PLATE",inactive; negative
same,mutagenic call,"Test System: E. COLI, Strain/Indicator: WP2 UVRA, Metabolic Activation: RAT, LIVER, S-9, AROCLOR 1254, Method: STANDARD PLATE",inactive; negative
CCC(CCC(C)=O)COC(=O)c1ccccc1C(=O)O (stereo not given),mutagenic call,[1],inactive; negative
same,mutagenic call,"Test System: AMES SALMONELLA TYPHIMURIUM, Strain/Indicator: TA97, Metabolic Activation: RAT, LIVER, S-9, AROCLOR 1254, Method: STANDARD PLATE",inactive; negative
same,mutagenic call,"Test System: AMES SALMONELLA TYPHIMURIUM, Strain/Indicator: TA97, Metabolic Activation: RAT, LIVER, S-9, DI(2-ETHYLHEXYL)PHTHALATE, Method: STANDARD PLATE",inactive; negative
same,mutagenic call,[2],inactive; negative
same,mutagenic call,[8],inactive; negative
same,mutagenic call,"Test System: AMES SALMONELLA TYPHIMURIUM, Strain/Indicator: TA98, Metabolic Activation: RAT, LIVER, S-9, DI(2-ETHYLHEXYL)PHTHALATE, Method: STANDARD PLATE",inactive; negative
same,mutagenic call,[3],inactive; negative
same,mutagenic call,[9],inactive; negative
same,mutagenic call,"Test System: AMES SALMONELLA TYPHIMURIUM, Strain/Indicator: TA100, Metabolic Activation: RAT, LIVER, S-9, DI(2-ETHYLHEXYL)PHTHALATE, Method: STANDARD PLATE",inactive; negative
same,mutagenic call,[7],inactive; negative
same,mutagenic call,[10],inactive; negative
same,mutagenic call,"Test System: AMES SALMONELLA TYPHIMURIUM, Strain/Indicator: TA102, Metabolic Activation: RAT, LIVER, S-9, DI(2-ETHYLHEXYL)PHTHALATE, Method: STANDARD PLATE",inactive; negative
COC(=O)[C@H](C)Cl,mutagenic call,"Test System: AMES SALMONELLA TYPHIMURIUM, Strain/Indicator: TA100, Metabolic Activation: NONE, Method: PREINCUBATION",inactive; negative
same,mutagenic call,"Test System: AMES SALMONELLA TYPHIMURIUM, Strain/Indicator: TA100, Metabolic Activation: RAT, LIVER, S-9, PCB, Method: PREINCUBATION",inactive; negative
